Measurements as given in patent publication US7754220B2, “Methods of inhibiting secretion of follicle-stimulating hormone and testosterone” (Takeda Pharmaceutical Company Limited, priority 2003, dated 2010).

Experiment: Level of human metastin in plasma by EIA after sustained administration
Format: in vivo
Details: rat, sc, male Copenhagen rats, continuous s.c. administration by osmotic pumps at 6.0 nmol/hr, 7 days after implantation
Protocol: Male Copenhagen rats of 8 weeks old after birth (Charles River Laboratories, US) were anesthetized by giving an intraperitoneal injection of sodium pentobarbital (Nembutal, Dainippon Pharmaceutical Co., Ltd.) in a dose of 50 mg/kg body weight. Then, two ALZET osmotic pumps (Model 2001, volume: 200 μL, rate: 1.0 μL/hr) filled with a 3 mM human metastin solution in distilled water (metastin group) or with distilled water (distilled water group) were implanted subcutaneously in rats at the back (5 rats in each group), whereby human metastin was continuously administered at a rate of 6.0 nmol/hr in the metastin group. For the intraperitoneal administration of sodium pentobarbital, a 1 mL tuberculin syringe and a 26-gauge needle (both by Terumo Co., Ltd.) were used. Following weighing the body weight 7 days after the implantation of the pumps, the animal was sacrificed by decapitation to collect blood. At the same time, the weight of testis was weighed. […] The levels of FSH (follicle-stimulating hormone), LH (luteinizing hormone) and testosterone contained in plasma were determined by radioimmunoassay (Rat Follicle Stimulating Hormone (rFSH) [^125I] Biotrack Assay System with Magnetic Separation, Rat Luteinizing Hormone (rLH) [^125I] Biotrack Assay System with Magnetic Separation, all by Amersham Biosciences, and DPC.Total Testosterone by Diagnostic Products Corporation).

`CC[C@H](C)[C@H](NC(=O)[C@H](CCC(N)=O)NC(=O)[C@H](CCCNC(=N)N)NC(=O)[C@H](CO)NC(=O)[C@H](Cc1c[nH]cn1)NC(=O)[C@@H]1CCCN1C(=O)[C@H](C)NC(=O)[C@H](CO)NC(=O)[C@H](CC(C)C)NC(=O)CNC(=O)[C@@H]1CCCN1C(=O)[C@H](CCC(N)=O)NC(=O)[C@H](CCC(N)=O)NC(=O)[C@H](CCCNC(=N)N)NC(=O)[C@H](CO)NC(=O)CNC(=O)[C@H](CO)NC(=O)[C@H](CO)NC(=O)[C@H](CCC(=O)O)NC(=O)[C@@H]1CCCN1C(=O)[C@@H]1CCCN1C(=O)[C@@H]1CCCN1C(=O)[C@H](CO)NC(=O)[C@H](CC(C)C)NC(=O)[C@H](CO)NC(=O)[C@@H](NC(=O)CN)[C@@H](C)O)C(=O)N1CCC[C@H]1C(=O)N[C@@H](C)C(=O)N1CCC[C@H]1C(=O)N[C@@H](CCC(N)=O)C(=O)NCC(=O)N[C@@H](C)C(=O)N[C@H](C(=O)N[C@@H](CC(C)C)C(=O)N[C@H](C(=O)N[C@@H](CCC(N)=O)C(=O)N[C@@H](CCCNC(=N)N)C(=O)N[C@@H](CCC(=O)O)C(=O)N[C@@H](CCCCN)C(=O)N[C@@H](CC(=O)O)C(=O)N[C@@H](CC(C)C)C(=O)N1CCC[C@H]1C(=O)N[C@@H](CC(N)=O)C(=O)N[C@@H](Cc1ccc(O)cc1)C(=O)N[C@@H](CC(N)=O)C(=O)N[C@@H](Cc1c[nH]c2ccccc12)C(=O)N[C@@H](CC(N)=O)C(=O)N[C@@H](CO)C(=O)N[C@@H](Cc1ccccc1)C(=O)NCC(=O)N[C@@H](CC(C)C)C(=O)N[C@@H](CCCNC(=N)N)C(=O)N[C@@H](Cc1ccccc1)C(N)=O)C(C)C)C(C)C` [Human metastin] showed a level at time molar at 168 h of ~3.2 nM.
